US9919055B2, “Sugar-linker-drug conjugates” (Arizona Board of Regents on Behalf of Arizona State …, priority 2013, dated 2018)

Columns and labels:
[1] = test system: MTX Resistant DU-145 Cells; assay: In vitro cell growth inhibition test (MTT assay, cell viability); format: cell-based, human; settings: 72 h incubation, DU-145-MTX cells
Description: (§1) A methotrexate resistant cell line. DU 145(MTX) was developed from parental DU 145 cells by exposure to increasing concentrations (starting at 0.1 μM) of methotrexate over a period of 6 months. DU 145(MTX) was at least 250-fold less sensitive to methotrexate than parental cells.
The human prostate cancer cell lines DU-145 (ATCC) was cultured in MEM media with glutamine and supplemented with 10% fetal bovine serum, penicillin (100 U/mL) and streptomycin ([…]) in air enriched with 5% CO2 at 37° C.
Cell viability was determined using the MTT assay. Briefly, cells were seeded in 96-well plates at a density of 3000 cells per well in 0.1 mL MEM media supplemented with 10% fetal bovine serum, and test compounds were concomitantly added in a concentration range of 0.001-1000 μM. Dilutions were made using the culture medium from 1 mM stock solutions of the drugs in anhydrous DMSO. Controls were treated with an equivalent amount of solvent, diluted as above, to assess the absence of toxicity due to the solvent. After 72 h of incubation, 15 μL of 5 mg mL^−1 MTT dye (3-[4,5-dimethylthiazol-2-yl]-2,5-diphenyltetrazolium bromide, sigma) was added for 4 h at 37° C. Media was removed and the monolayer suspended in 0.15 mL of DMSO, after which the absorbance at 570 nm was measured using a microplate reader. The control value corresponding to untreated cells was defined as 100% and the viability of treated samples was expressed as a percentage of the control.

[2] = test system: DU 145(MTX) cells; assay: Sensitivity of methotrexate resistant cell line DU 145(MTX) versus parental DU 145 cells; format: cell-based, human
Description: as §1

## CN(Cc1cnc2nc(N)nc(N)c2n1)c1ccc(C(=O)N[C@@H](CCC(=O)O)C(=O)O)cc1 [Methotrexate (MTX), Methotrexate, reference compound]
[1]; 100 nM test compound
  DU-145-MTX (% cell survival): 82%
[1]; 1 μM test compound
  DU-145-MTX (% cell survival): 84%
[1]; 10 μM test compound
  DU-145-MTX (% cell survival): 83%
[2]
  fold less sensitive to methotrexate than parental cells: at least 250 fold
